Series [1] relates to ulcers in rats in the stomach region. Put plainly: Determination of anti-ulcer activity (Shay method, ulcers induced in rats by pyloric ligation). The conditions noted are these: via the mouth, 16 hours after treatment. It counts as in vivo. From the text:
(1) Determination of anti-ulcer activity
The method used is described by Shay et al. in Gastroenterology, 5, 43, (1945).
The Shay method consists of inducing ulcers in rats in the stomach region by pyloric ligation.
The animals are anesthetized with ether. A longitudinal incision is made, 1 cm below the sternum; the glandular part of the stomach and the duodenum are exposed, and a ligature is placed several mm below the pylorus. The muscular sheet is left as it is and the skin is sutured with 2 clips.
The animals immediately receive the dispersive or the substance to be studied, via the mouth, in a volume of 0.5 ml/100 g and are kept without food or drink until sacrificed, 16 hours after the treatment, by carotid bleeding.
Before removal of the stomach, a ligature is placed above the cardia.
The gastric liquid is collected for measurement of pH.
The stomach is then opened along the major curvature, rinsed with physiological serum, and spread out on millimeter graph paper to be examined under a binocular magnifier.
The severity of the lesions, graded 0 to 4, is macroscopically evaluated for each stomach.
For each group of rats, the mean intensity of the ulcerations is determined, and the protection is calculated as the ratio of the mean index for the treated group to the mean index for the control group.
The pH values of the gastric liquid are likewise determined for the treated and control animals.

Series [2] can be described thus: Determination of Acute Toxicity (oral LD50 in mice). Conditions: mouse, in vivo. As for the experimental part:
(2) Determination of Acute Toxicity
The lethal dose LD50 of the derivatives of certain examples were evaluated after administration by the oral route in mice.

Here are results for eight molecules from patent US4402978A, “Gastro-protecting activity of substituted derivatives of 4-phenyl-4-oxo-2-hydroxy-butanoic acid” (Roussel-Uclaf, priority 1980, dated 1983).

The structures appear in SMILES notation.

By LD50 is commonly meant the dose expected to kill half of the subjects tested. Lower therefore signals a more toxic substance.

With `O=C(CC(O)C(=O)O)c1ccc(Cl)cc1` (stereo not shown) [Example 2, 4-(4-chlorophenyl)-4-oxo-2-hydroxy-butanoic acid], the results for the “Ulcerations, % of protection with respect to controls” value (shortened to “Ulcerations, % of protection”) in series [1] (4 mg/kg) and in series [1] (20 mg/kg) were 25% and 72%, respectively. Further, the “pH of gastric liquid, treated animals” value in series [1] (4 mg/kg) is recorded as 3.5; in series [1] (20 mg/kg), 3.0. Moreover, the LD50 in series [2] is above 1000 mg/kg.

As to `O=C(CC(O)C(=O)O)c1ccc(Cl)c(Cl)c1` (stereo not shown) [Example 3, 4-(3,4-dichlorophenyl)-4-oxo-2-hydroxy-butanoic acid], the “Ulcerations, % of protection” value in series [1] (20 mg/kg) is reported as 36%; in series [1] (100 mg/kg), 91%. The “pH of gastric liquid, treated animals” value in series [1] (20 mg/kg) stood at 3.2; in series [1] (100 mg/kg), 4.2. For the same molecule, in series [2], the LD50 is above 1000 mg/kg.

With `O=C(CC(O)C(=O)O)c1ccc([N+](=O)[O-])cc1` (stereo not shown) [Example 8, 4-(4-nitrophenyl)-4-oxo-2-hydroxy-butanoic acid], in series [1] (100 mg/kg), the “Ulcerations, % of protection” value is given as 49% and the “pH of gastric liquid, treated animals” value came out at 3.0. For the same molecule, in series [2], the LD50 was above 1000 mg/kg.

In series [2], `O=C(CC(O)C(=O)O)c1ccccc1[N+](=O)[O-]` (stereo not shown) [Example 13, 4-(2-nitrophenyl)-4-oxo-2-hydroxy-butanoic acid] registered an LD50 above 1000 mg/kg.

Consider `COc1ccc(C(=O)CC(O)C(=O)O)cc1OC` (stereo not shown) [Example 1, 4-(3,4-dimethoxyphenyl)-4-oxo-2-hydroxy-butanoic acid], for which the results for the “Ulcerations, % of protection” value in series [1] (0.8 mg/kg), in series [1] (4 mg/kg) and in series [1] (20 mg/kg) were 27%, 72% and 72%, respectively. Besides, the “pH of gastric liquid, treated animals” value stood at 3.4 in series [1] (0.8 mg/kg), 3.0 in series [1] (4 mg/kg) and 2.3 in series [1] (20 mg/kg). In addition, the LD50 in series [2] was above 1000 mg/kg.

Regarding `O=C(CC(O)C(=O)O)c1ccc(Cl)cc1Cl` (stereo not shown) [Example 4, 4-(2,4-dichlorophenyl)-4-oxo-2-hydroxy-butanoic acid], in series [1] (20 mg/kg), the “Ulcerations, % of protection” value is 9% and the “pH of gastric liquid, treated animals” value amounted to 2.9. Moreover, in series [1] (100 mg/kg), the “Ulcerations, % of protection” value is 91% and the “pH of gastric liquid, treated animals” value is reported as 4.4. This molecule displayed an LD50 in series [2] above 1000 mg/kg.

Take `O=C(CC(O)C(=O)O)c1ccc(Br)cc1` (stereo not shown) [Example 5, 4-(4-bromophenyl)-4-oxo-2-hydroxy-butanoic acid]: the “Ulcerations, % of protection” value is on record as 40% in series [1] (20 mg/kg) and 95% in series [1] (100 mg/kg). The “pH of gastric liquid, treated animals” value in series [1] (20 mg/kg) stood at 3.1; in series [1] (100 mg/kg) it was 3.4. The molecule further registered an LD50 in series [2] above 1000 mg/kg.

Take `COc1cc(OC)cc(C(=O)CC(O)C(=O)O)c1` (stereo not shown) [Example 11, 4-(3,5-dimethoxyphenyl)-4-oxo-2-hydroxy-butanoic acid]: the “Ulcerations, % of protection” value in series [1] (1 mg/kg) was 53%; in series [1] (4 mg/kg), 50%; in series [1] (20 mg/kg) it was 60%; in series [1] (100 mg/kg), 88%. Besides, the “pH of gastric liquid, treated animals” value in series [1] (1 mg/kg) was found to be 1.9; in series [1] (4 mg/kg), 2.0; in series [1] (20 mg/kg) it was 2.0; in series [1] (100 mg/kg), 3.0. In addition, the LD50 in series [2] was above 1000 mg/kg.
